Experimental data taken from patent US12595258B2, “Heterocyclic derivatives, pharmaceutical compositions and their use in the treatment or amelioration of cancer” (TOLREMO THERAPEUTICS AG, priority 2022, dated 2026).

Columns and labels:
[1] = tested on: multiple myeloma cell line OPM-2; test: Multiple myeloma cellular efficacy (PrestoBlue cell proliferation/survival assay); format: cell-based; details: Homo sapiens, 96 h; OPM-2 cells, 4 days treatment, PrestoBlue signal relative to vehicle; read-out: Assay 1
Experimental: Multiple Myeloma Cellular Efficacy:
10000 OPM-2 (ACC50; DSMZ) were plated into wells of a 384 well plate (Greiner 781090). Cells were treated for 4 days with a dose range of compound or vehicle. At the end of the experiment cells were stained directly with PrestoBlue (ThermoFisher Scientific; A13262) for 2 hours at 37° C. in a humidified incubator according to manufactor's instruction. To assess the relative cell number the PrestoBlue signal was measured using either a TecanM1000Pro reader or a Tecan Sparks reader following the manufactor's instructions. Background (no cells) values were subtracted and set in relation to the vehicle control. To assess the EC50 of each compound the relative fluorescence value was plotted against the compound concentration after log transformation. Data were fitted in a nonlinear manner with a variable slope (four parameters) using graphpad prism software. Cellular efficacy of compounds was evaluated in the multiple myeloma cell line OPM-2 using the cell proliferation/survival assay PrestoBlue. EC50 values are classified as indicated below.

CBP bromodomain = target: T1, CBP bromodomain (Homo sapiens, UniProt Q92793); test: CBP bromodomain binding assay (TR-FRET); details: TR-FRET (Cayman kit 600850), 1 hour incubation at room temperature; read-out: Assay 2
T1 construct: purchased Cayman chemicals 600850
T1 sequence (Q92793 1085-1192 limits assumed): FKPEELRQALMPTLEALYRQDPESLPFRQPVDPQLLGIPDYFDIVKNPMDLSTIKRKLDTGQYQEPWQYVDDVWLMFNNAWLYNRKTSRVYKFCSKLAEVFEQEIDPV
Experimental: CBP Bromodomain Binding Assay (TR-FRET)
Compounds solutions of 10 mM in DMSO were pre-diluted in DSMO to 25× stock solutions in DMSO. These were then diluted down to 4× in assay buffer. A dilution series in assay buffer was performed keeping the DMSO concentration stable. 5 μl compound in assay buffer was transferred into the assay plate (provided by assay kit) and the TR-FRET assay Cayman chemicals; 600850) was performed using the provider's instructions. After 1 hour incubation at room temperature in the darks, assay plates were read in a Tecan M1000 plate reader or a Tecan Sparks reader using the TR-FRET mode (top read; excitation 340 nm bandwidth 20 nM; emission 620 nm bandwidth 7 nM; gain optimal determined for the first well, number of flashes: 5; flash frequency 100 Hz; integration time: 500 μs, lag time: 100 μs, room temperature). The TR-FRET ratio was calculated by dividing 670 nm emission by 620 nm emission. Values were log transformed and non-linear regression with variable slope (4 parameters) was used to fit values to a dose-response curve to evaluate EC50 values.

## CC(=O)N1C[C@H](c2nc(Nc3cc(F)cc(-c4cn(C)cn4)c3)cc(-c3cnccn3)n2)CC[C@@H]1C [Compound 001, 1-((2S,5R)-5-(4-((3-fluoro-5-(1-methyl-1H-imidazol-4-yl)phenyl)amino)-6-(pyrazin-2-yl)pyrimidin-2-yl)-2-methylpiperidin-1-yl)ethan-1-one]
[1]
  EC50: 1 nM
CBP bromodomain
  EC50: 7 nM

## CC(=O)N1C[C@H](c2nc(Nc3cc(F)cc(-c4cn[nH]c4)c3)cc(-c3cnccn3)n2)CC[C@@H]1C [Compound 002, 1-((2S,5R)-5-(4-((3-fluoro-5-(1H-pyrazol-4-yl)phenyl)amino)-6-(pyrazin-2-yl)pyrimidin-2-yl)-2-methylpiperidin-1-yl)ethan-1-one]
[1]
  EC50: 25 nM
CBP bromodomain
  EC50: 23 nM

## CC(=O)N1C[C@H](c2nc(Nc3cccc(-c4cn(C)nc4C)c3)cc(-c3cnccn3)n2)CC[C@@H]1C [Compound 004]
CBP bromodomain
  EC50: 128 nM

## CC(=O)N1C[C@H](c2nc(Nc3cccc(-c4cnn(C)c4C)c3)cc(-c3cnccn3)n2)CC[C@@H]1C [Compound 005]
[1]
  EC50: 193 nM

## CC(=O)N1C[C@H](c2nc(Nc3cc(F)cc(-c4nnc(C)o4)c3)cc(-c3cnccn3)n2)CC[C@@H]1C [Compound 006, 1-((2S,5R)-5-(4-((3-fluoro-5-(5-methyl-1,3,4-oxadiazol-2-yl)phenyl)amino)-6-(pyrazin-2-yl)pyrimidin-2-yl)-2-methylpiperidin-1-yl)ethan-1-one]
[1]
  EC50: 6 nM
CBP bromodomain
  EC50: 3 nM

## CC(=O)N1C[C@H](c2nc(Nc3cccc(-c4cn(C(C)C)nn4)c3)cc(-c3cnccn3)n2)CC[C@@H]1C [Compound 007, 1-((2S,5R)-5-(4-((3-(1-isopropyl-1H-1,2,3-triazol-4-yl)phenyl)amino)-6-(pyrazin-2-yl)pyrimidin-2-yl)-2-methylpiperidin-1-yl)ethan-1-one]
[1]
  EC50: 50 nM

## CC(=O)N1C[C@H](c2nc(Nc3cccc(-c4cn(C5COC5)nn4)c3)cc(-c3cnccn3)n2)CC[C@@H]1C [Compound 008]
[1]
  EC50: 28 nM

## CC(=O)N1C[C@H](c2nc(Nc3cc(F)cc(-c4c[nH]nn4)c3)cc(-c3cnccn3)n2)CC[C@@H]1C [Compound 009, 1-((2S,5R)-5-(4-((3-fluoro-5-(1H-1,2,3-triazol-4-yl)phenyl)amino)-6-(pyrazin-2-yl)pyrimidin-2-yl)-2-methylpiperidin-1-yl)ethan-1-one]
[1]
  EC50: 37 nM

## CC(=O)N1C[C@H](c2nc(Nc3cc(Cl)cc(-c4c[nH]nn4)c3)cc(-c3cnccn3)n2)CC[C@@H]1C [Compound 010, 1-((2S,5R)-5-(4-((3-chloro-5-(1H-1,2,3-triazol-4-yl)phenyl)amino)-6-(pyrazin-2-yl)pyrimidin-2-yl)-2-methylpiperidin-1-yl)ethan-1-one]
[1]
  EC50: 45 nM

## CCn1cc(-c2cccc(Nc3cc(-c4cnccn4)nc([C@@H]4CC[C@H](C)N(C(C)=O)C4)n3)c2)nn1 [Compound 011, 1-((2S,5R)-5-(4-((3-(1-ethyl-1H-1,2,3-triazol-4-yl)phenyl)amino)-6-(pyrazin-2-yl)pyrimidin-2-yl)-2-methylpiperidin-1-yl)ethan-1-one]
[1]
  EC50: 6 nM

## CC(=O)N1C[C@H](c2nc(Nc3ccc(C)c(-c4cn(C)nn4)c3)cc(-c3cnccn3)n2)CC[C@@H]1C [Compound 012, 1-((2S,5R)-2-methyl-5-(4-((4-methyl-3-(1-methyl-1H-1,2,3-triazol-4-yl)phenyl)amino)-6-(pyrazin-2-yl)pyrimidin-2-yl)piperidin-1-yl)ethan-1-one]
[1]
  EC50: 261 nM

## CC(=O)N1C[C@H](c2nc(Nc3cccc(-c4cn(C)nn4)c3C)cc(-c3cnccn3)n2)CC[C@@H]1C [Compound 013]
[1]
  EC50: 32 nM

## CC(=O)N1C[C@H](c2nc(Nc3cc(C)cc(-c4cn(C)nn4)c3)cc(-c3cnccn3)n2)CC[C@@H]1C [Compound 014, 1-((2S,5R)-2-methyl-5-(4-((3-methyl-5-(1-methyl-1H-1,2,3-triazol-4-yl)phenyl)amino)-6-(pyrazin-2-yl)pyrimidin-2-yl)piperidin-1-yl)ethan-1-one]
[1]
  EC50: 5 nM
CBP bromodomain
  EC50: 7 nM

## CC(=O)N1C[C@H](c2nc(Nc3cccc(-c4nnn(C)c4C)c3)cc(-c3cnccn3)n2)CC[C@@H]1C [Compound 015, 1-((2S,5R)-5-(4-((3-(1,5-dimethyl-1H-1,2,3-triazol-4-yl)phenyl)amino)-6-(pyrazin-2-yl)pyrimidin-2-yl)-2-methylpiperidin-1-yl)ethan-1-one]
[1]
  EC50: 109 nM

## CC(=O)N1C[C@H](c2nc(Nc3cccc(-c4nn(C)nc4C)c3)cc(-c3cnccn3)n2)CC[C@@H]1C [Compound 016, 1-((2S,5R)-5-(4-((3-(2,5-dimethyl-2H-1,2,3-triazol-4-yl)phenyl)amino)-6-(pyrazin-2-yl)pyrimidin-2-yl)-2-methylpiperidin-1-yl)ethan-1-one]
[1]
  EC50: 142 nM

## CC(=O)N1C[C@H](c2nc(Nc3cccc(-c4cnnn4C)c3)cc(-c3cnccn3)n2)CC[C@@H]1C [Compound 017, 1-((2S,5R)-2-methyl-5-(4-((3-(1-methyl-1H-1,2,3-triazol-5-yl)phenyl)amino)-6-(pyrazin-2-yl)pyrimidin-2-yl)piperidin-1-yl)ethan-1-one]
[1]
  EC50: 458 nM

## CC(=O)N1C[C@H](c2nc(Nc3ccc(F)c(-c4cn(C)nn4)c3)cc(-c3cnccn3)n2)CC[C@@H]1C [Compound 018, 1-((2S,5R)-5-(4-((4-fluoro-3-(1-methyl-1H-1,2,3-triazol-4-yl)phenyl)amino)-6-(pyrazin-2-yl)pyrimidin-2-yl)-2-methylpiperidin-1-yl)ethan-1-one]
[1]
  EC50: 63 nM
CBP bromodomain
  EC50: 22 nM

## CC(=O)N1C[C@H](c2nc(Nc3cccc(-c4cn(C)nn4)c3F)cc(-c3cnccn3)n2)CC[C@@H]1C [Compound 019, 1-((2S,5R)-5-(4-((2-fluoro-3-(1-methyl-1H-1,2,3-triazol-4-yl)phenyl)amino)-6-(pyrazin-2-yl)pyrimidin-2-yl)-2-methylpiperidin-1-yl)ethan-1-one]
[1]
  EC50: 1 nM
CBP bromodomain
  EC50: 6 nM

## CC(=O)N1C[C@H](c2nc(Nc3cc(-c4cn(C)nn4)ccc3F)cc(-c3cnccn3)n2)CC[C@@H]1C [Compound 020]
[1]
  EC50: 864 nM

## CC(=O)N1C[C@H](c2nc(Nc3cc(Cl)cc(-c4cn(C)nn4)c3)cc(-c3cnccn3)n2)CC[C@@H]1C [Compound 021, 1-((2S,5R)-5-(4-((3-chloro-5-(1-methyl-1H-1,2,3-triazol-4-yl)phenyl)amino)-6-(pyrazin-2-yl)pyrimidin-2-yl)-2-methylpiperidin-1-yl)ethan-1-one]
[1]
  EC50: 5 nM

## CC(=O)N1C[C@H](c2nc(Nc3cc(F)cc(-c4cn(C5COC5)nn4)c3)cc(-c3cnccn3)n2)CC[C@@H]1C [Compound 022, 1-((2S,5R)-5-(4-((3-fluoro-5-(1-(oxetan-3-yl)-1H-1,2,3-triazol-4-yl)phenyl)amino)-6-(pyrazin-2-yl)pyrimidin-2-yl)-2-methylpiperidin-1-yl)ethan-1-one]
[1]
  EC50: 13 nM

## CC(=O)N1C[C@H](c2nc(Nc3cccc(-c4cn(C5COC5)nn4)c3F)cc(-c3cnccn3)n2)CC[C@@H]1C [Compound 023]
[1]
  EC50: 7 nM
CBP bromodomain
  EC50: 65 nM
